Assay results from patent publication US9717709B2, “Substituted pyrazoles as heat shock transcription factor activators” (Duke University, priority 2010, dated 2017).

What was measured:
Hsp90 = experiment: competitive binding assay in vitro using biotinylated geldanamycin (GD-B)
Excerpt: Many pharmacological inhibitors of Hsp90 such as geldanamycin and 17-AAG target the amino-terminal ATP binding pocket of Hsp90, thereby inhibiting its chaperone function. To test whether HSF1A has affinity for the Hsp90 ATP-binding pocket, we performed competitive binding assays in vitro using a biotinylated geldanamycin (GD-B) molecule. […] Because other small molecule inhibitors of Hsp90, including celastrol, novobiocin, and EGCG, are thought to bind Hsp90 at the carboxy-terminus Amolins, M and Blagg, B, Mini Rev Med Chem. 2009 9, 140-152, we ascertained whether HSF1A could bind to Hsp90 at a region outside of the ATPbinding pocket. To assay for HSF1A binding to Hsp90, we generated an HSF1A-biotin conjugate (HSF1A-B)) and assayed the ability of HSF1A-B to interact with Hsp90.

mouse model of ALS = settings: Kieran et al., Nature Medicine 2004; cited from earlier work

In the case of `C=CCNC1=C2C[C@@H](C)C[C@H](OC)[C@H](O)[C@@H](C)/C=C(\C)[C@H](OC(N)=O)[C@@H](OC)/C=C\C=C(/C)C(=O)NC(=CC1=O)C2=O` [17-AAG], the “competition with GD-B for Hsp90 binding” value (Hsp90; at 1 mM and 10 mM) is reported as “able to compete”.

With `CCc1ccc(S(=O)(=O)Nc2cc(-c3cccs3)nn2-c2ccccc2)cc1` [HSF1A] the “competition with GD-B for Hsp90 binding” value (Hsp90; concentrations 100-fold higher than GD-B) was “unable to compete”.

For `[O-][n+]1cccc(/C(Cl)=N/OC[C@H](O)CN2CCCCC2)c1` [arimoclomal], the disease progression (mouse model of ALS) is listed as “significantly delays disease progression”.
